According to patent publication US8921405B2, “Compounds” (Orexo AB, priority 2009, dated 2014):

Target: T1, recombinant human mPGES-1 (Homo sapiens, UniProt O14684)
T1 construct: made in house; host or cells: Rosetta E. coli (membrane/microsome fraction)
T1 sequence (O14684 1-152): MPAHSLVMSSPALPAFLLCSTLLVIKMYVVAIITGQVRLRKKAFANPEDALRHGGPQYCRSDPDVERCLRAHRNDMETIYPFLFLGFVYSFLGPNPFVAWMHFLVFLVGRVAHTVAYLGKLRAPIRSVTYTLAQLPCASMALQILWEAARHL
Test: mPGES-1 HTRF assay (inhibition of PGE2 formation from PGH2)
Assay type: biochemical
Settings: HTRF assay; for inhibition at 10 µM: compound concentration of 10 μM, read-out: % inhibition
Method: The basis of the assay used is to measure the inhibition of microsomal prostaglandin E2 synthase-1 (mPGES-1) dependent prostaglandin (PG) E2 formation from PGH2 by different compounds. Thus, the formation of PGE2 is used as signal and a lowering of this signal can be interpreted as inhibition of mPGES-1. […] Microsomes from Rosetta E. coli bacteria expressing recombinant human mPGES-1 can be derived as described below: Inoculate 5 ml LB with Amp and Chloro with bacteria from freeze culture. Incubate over night at 37° C. with 200 rpm. Thereafter, inoculate 500-800 ml LB containing Amp and Chloro with the 5 ml on culture and grow to OD640 of 0.6-0.8. Chill the culture to +4° C. before induction. Induce the culture with IPTG at a final concentration of 400 μM. Express the protein at room temp 18-23° C. with 200 rpm shaking over night. The following steps can be performed on the following day: • 1. Spin down the cells in 250 ml centrifuge flasks for 15 min at 7000 rpm • 2. Dissolve the pellet from 250 ml culture in 12.5 ml homogenization buffer • 3. Disintegrate the cells by sonication, 4×10 seconds at 35% amplitude • 4. Add 2.5 ml MgCl2 (100 mM) and DNase 12.5 μl (0.8 mg/ml) and incubate on ice for 30 min • 5. Spin down the bacteria debris and save the supernatant, 7000 rpm for 15 min • 6. Isolate the protein containing membranes in the supernatant by ultracentrifugation 45000×g for 1 hour. • 7. Discard the supernatant and dissolve the pellet in 20 mM KPi buffer and aliquot the enzyme and store aliquots at −80° C. Before each experiment is performed an aliquot of the enzyme is thawed and it can then be dissolved in 0.1 M KPi pH 7.4 buffer containing 2.5 mM GSH. 50 μl of this enzyme solution is subsequently dispensed in a 384-well plate at room temperature. 0.5 μl of the inhibitor dissolved in DMSO is thereafter added to each well and incubated for 25 minutes at room temperature. Subsequently, 2 μl of PGH2 dissolved in an appropriate solvent is added to each well and after one minute at room temperature, the acidified stop solution containing FeCl2 is added. 4 μl of the total volume is transferred to a separate plate and diluted 750-fold in two separate steps before quantification of PGE2. In order to quantitate the amount of PGE2 that has been formed, a homogenous time resolved fluorescent (HTRF) detection of PGE2 can be performed by the use of a commercially available kit from CisBio essentially according to the manufacturer's protocol. […] The sealing film is thereafter removed from the NC wells. • 5 μl Eu3+-cryptate labeled anti-PGE2 can now be added to rows 1 to 24 by using a Multidrop. • The plate can now be covered with sealing film. • The plate can now be centrifuge at 1200 rpm for 1 minute and place at 4° C. overnight. After the over night incubation the fluorescence is measured by the use of an appropriate microplate reader. […] The extent of the specific HTRF is measured as a ratio of the emission intensity at 665 nm vs. that at 620 nm. A standard curve using synthetic PGE2 is used to quantify the amount of PGE2 in unknown samples. The degree of inhibition can be calculated as percent inhibition by dividing the amount of PGE2 formed in unknown samples by the amount of PGE2 formed in control samples.

SMILES	inhibition at 10 µM [%]	IC50 [nM]
CN1CCCCC1CNC(=O)c1ccc2c(c1)nc(Nc1cc(CNC(=O)C3(C)CCCCC3)ccc1Cl)n2C (centres unmarked) [Example 19, 2-{2-Chloro-5-[(1-methylcyclohexylamido)methyl]phenylamino]-1-methyl-N-[(1-methyl-2-piperidinyl)methyl]benzimidazole-5-carboxamide]	98	
Cn1c(Nc2cc(CNC(=O)C(C)(F)F)ccc2Cl)nc2cc(C(=O)Nc3ccc(Br)cc3)c(OCC(F)F)cc21 [Example 72, N-(4-Bromo-phenyl)-2-(2-chloro-5-{[(1,1-difluoro-ethylcarbonyl)-amino]-methyl}-phenylamino)-6-(2,2-difluoro-ethoxy)-1-methyl-1H-benzimidazole-5-carboxylic acid amide]		3
Cn1c(Nc2cc(CNC(=O)c3c(F)cccc3Cl)ccc2Cl)nc2cc(C(=O)Nc3ccc(Br)cc3)ccc21 [Example 36, N-(4-Bromophenyl)-2-{2-chloro-5-[(2-chloro-6-fluorobenzamido)methyl]phenylamino}-1-methylbenzimidazole-5-carboxamide]	100	
CC(=O)NCc1ccc(Cl)c(Nc2nc3cc(C(=O)Nc4ccc(Br)cc4)ccc3n2C)c1 [Example 43, 2-[5-(Acetamidomethyl)-2-chlorophenylamino]-N-(4-bromophenyl)-1-methylbenzimidazole-5-carboxamide]	100	
Cn1c(Nc2cc(CNC(=O)[C@@H]3C[C@H]3c3ccccc3)ccc2Cl)nc2cc(C(=O)Nc3ccc(Br)cc3)ccc21 [Example 39, N-(4-Bromophenyl)-2-{2-chloro-5-[(trans-2-phenylcyclopropylamido)-methyl]phenylamino}-1-methylbenzimidazole-5-carboxamide]	100	
Cn1c(Nc2cc(CNC(=O)C3(O)CC3)ccc2Cl)nc2cc(C(=O)Nc3ccc(Br)cc3)c(OCC(F)F)cc21 [Example 76, N-(4-Bromo-phenyl)-2-(2-chloro-5-{[(1-hydroxycyclopropanecarbonyl)-amino]-methyl}-phenylamino)-6-(2,2-difluoro-ethoxy)-1-methyl-1H-benzimidazole-5-carboxylic acid amide]		3
Cn1c(Nc2cc(CNC(=O)C3CC3)ccc2Cl)nc2cc(C(=O)Nc3ccc(Br)cc3)c(OCC(F)F)cc21 [Example 80, N-(4-Bromo-phenyl)-2-(2-chloro-5-{[(cyclopropylcarbonyl)-amino]-methyl}-phenylamino)-6-(2,2-difluoro-ethoxy)-1-methyl-1H-benzimidazole-5-carboxylic acid amide]		9

Further lines, results first:

inhibition at 10 µM [%]	IC50 [nM]	SMILES
	> 100	COc1ccc(CNC(=O)C(C)(C)C)cc1Nc1nc2cc(C(=O)N[C@H]3CC[C@H](C(F)(F)F)CC3)c(Cl)cc2[nH]1 [Example 99, N-(trans-4-Trifluoromethyl-cyclohex-1-yl)-2-(2-methoxy-5-{[(tert-butylcarbonyl)-amino]-methyl}-phenylamino)-6-chloro-1H-benzimidazole-5-carboxylic acid amide]
98		CC(=O)NCc1ccc(Cl)c(Nc2nc3cc(C(=O)NCC4CCCCC4)ccc3n2C)c1 [Example 32, 2-[5-(Acetamidomethyl)-2-chlorophenylamino]-N-cyclohexylmethyl-1-methylbenzimidazole-5-carboxamide]
	1	CC(C)(C)C(=O)NCc1ccc(C(F)(F)F)c(Nc2nc3cc(C(=O)N[C@H]4CC[C@H](C(F)(F)F)CC4)c(OCC(F)F)cc3[nH]2)c1 [Example 96, N-(trans-4-Trifluoromethyl-cyclohex-1-yl)-2-(2-trifluoromethyl-5-{[(tert-butylcarbonyl)-amino]-methyl}-phenylamino)-6-(2,2-difluoro-ethoxy)-1H-benzimidazole-5-carboxylic acid amide]
	2	COc1cc2c(cc1C(=O)NCC1CC1)nc(Nc1cc(CNC(=O)C3(C(F)(F)F)CC3)ccc1Cl)n2C [Example 64, N-(Cyclopropylmethyl)-2-(2-chloro-5-{[(1-trifluoromethyl-cyclopropanecarbonyl)-amino]-methyl}-phenylamino)-6-methoxy-1-methyl-1H-benzimidazole-5-carboxylic acid amide]
